Measurements reported in patent US9969742B2, “Imidazotriazinone compounds” (Ironwood Pharmaceuticals, Inc., priority 2012, dated 2018).
Read-outs that look alike come from different tables or passages of the source.

Legend:
Format in all cases: biochemical
PDE9A2 = target: T1, PDE9A2 (Homo sapiens, UniProt O76083); assay: Phosphodiesterase enzyme screening assay, PDE9A2
T1 construct: purchased Reaction Biology Corporation, Malvern, Pa
Procedure, shortened: (§1)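 Reaction started by adding substrate (4.0 μM cGMP) to recombinant human enzyme in HEPES pH 7.5 buffer with MgCl2, DTT and Brij; 1 h at room temperature; quenched with EDTA-containing stop buffer; product and substrate resolved electrophoretically and quantified by fluorescence relative to uninhibited controls.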

PDE1A = target: T2, PDE1A (Homo sapiens, UniProt P54750); assay: Phosphodiesterase enzyme screening assay, PDE1A
T2 construct: purchased Reaction Biology Corporation, Malvern, Pa
Procedure, shortened: as §1

PDE1B = target: T3, PDE1B (Homo sapiens, UniProt Q01064); assay: Phosphodiesterase enzyme screening assay, PDE1B
T3 construct: purchased Reaction Biology Corporation, Malvern, Pa
Procedure, shortened: as §1

[1] = Table 1, 10 concentrations, 4.0 μM cGMP substrate, 1 hour at R.T., read-out: Band (PDE9A2 IC50)
[2] = Table 1, ratio of IC50 values, value greater than 1 indicates greater selectivity for PDE9A2
[3] = 4.0 μM cGMP substrate, 1 hour at R.T., read-out: Band (PDE9A2 IC50)
[4] = ratio of IC50 values PDE1A / PDE9A2, value greater than 1 indicates greater selectivity for PDE9A2
[5] = ratio of IC50 values PDE1B / PDE9A2, value greater than 1 indicates greater selectivity for PDE9A2
[6] = ratio of IC50 values PDE1A / PDE9A2, value greater than 1 = greater selectivity for PDE9A2
[7] = ratio of IC50 values PDE1B / PDE9A2, value greater than 1 = greater selectivity for PDE9A2
[8] = ratio of IC50 values, PDE1A versus PDE9A2, value greater than 1 indicates greater selectivity for PDE9A2
[9] = ratio of IC50 values, PDE1B versus PDE9A2, value greater than 1 indicates greater selectivity for PDE9A2
[10] = Table 2, ratio of IC50 values, value greater than 1 indicates greater selectivity for PDE9A2

T2 sequence (P54750 whole entry): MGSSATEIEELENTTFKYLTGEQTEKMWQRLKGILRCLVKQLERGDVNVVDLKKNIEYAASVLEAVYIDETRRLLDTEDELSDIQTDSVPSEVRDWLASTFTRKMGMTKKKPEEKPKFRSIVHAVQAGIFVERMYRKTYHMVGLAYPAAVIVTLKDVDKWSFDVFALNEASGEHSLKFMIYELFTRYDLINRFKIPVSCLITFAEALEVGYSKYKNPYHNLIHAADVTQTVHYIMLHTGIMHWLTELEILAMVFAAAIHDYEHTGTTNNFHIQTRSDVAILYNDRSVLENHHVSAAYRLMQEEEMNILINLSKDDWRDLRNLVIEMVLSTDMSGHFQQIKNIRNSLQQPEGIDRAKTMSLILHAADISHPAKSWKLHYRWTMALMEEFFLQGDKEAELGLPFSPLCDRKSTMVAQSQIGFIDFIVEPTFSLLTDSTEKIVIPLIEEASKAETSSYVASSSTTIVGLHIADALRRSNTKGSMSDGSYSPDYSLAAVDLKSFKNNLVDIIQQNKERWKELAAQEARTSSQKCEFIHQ
T1 sequence (O76083 1-533 isoform O76083-2): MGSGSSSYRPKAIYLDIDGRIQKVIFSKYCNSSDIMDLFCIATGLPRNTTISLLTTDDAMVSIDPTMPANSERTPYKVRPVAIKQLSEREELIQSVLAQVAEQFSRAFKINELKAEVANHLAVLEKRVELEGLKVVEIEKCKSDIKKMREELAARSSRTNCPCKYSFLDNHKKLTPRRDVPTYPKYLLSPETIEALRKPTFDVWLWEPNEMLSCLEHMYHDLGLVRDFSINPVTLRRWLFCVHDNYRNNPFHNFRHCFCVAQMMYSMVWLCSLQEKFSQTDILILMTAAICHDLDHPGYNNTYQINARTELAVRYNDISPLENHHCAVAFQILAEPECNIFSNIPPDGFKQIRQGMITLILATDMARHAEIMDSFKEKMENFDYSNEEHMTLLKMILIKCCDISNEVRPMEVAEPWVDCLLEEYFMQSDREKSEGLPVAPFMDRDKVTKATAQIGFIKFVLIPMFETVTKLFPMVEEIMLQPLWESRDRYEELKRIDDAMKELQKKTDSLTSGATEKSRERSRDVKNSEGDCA
T3 sequence (Q01064 whole entry): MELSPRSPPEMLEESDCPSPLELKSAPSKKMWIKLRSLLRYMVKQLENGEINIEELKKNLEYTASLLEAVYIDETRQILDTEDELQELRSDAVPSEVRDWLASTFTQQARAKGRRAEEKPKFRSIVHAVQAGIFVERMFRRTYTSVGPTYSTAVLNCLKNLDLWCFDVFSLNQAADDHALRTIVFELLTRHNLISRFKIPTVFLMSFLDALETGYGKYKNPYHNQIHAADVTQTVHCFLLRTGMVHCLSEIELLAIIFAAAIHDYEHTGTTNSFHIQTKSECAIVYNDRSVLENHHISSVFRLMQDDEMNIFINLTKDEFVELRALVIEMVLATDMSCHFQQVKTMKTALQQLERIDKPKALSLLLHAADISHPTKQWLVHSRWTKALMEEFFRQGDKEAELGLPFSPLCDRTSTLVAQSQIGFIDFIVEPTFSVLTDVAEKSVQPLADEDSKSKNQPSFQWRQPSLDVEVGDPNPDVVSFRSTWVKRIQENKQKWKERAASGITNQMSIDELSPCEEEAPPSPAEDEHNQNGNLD

Structure (SMILES): Cc1ccc(F)cc1-c1ncc2c(=O)[nH]c(C3CN(Cc4ccc(F)cc4)CC3C)nn12 (single isomer, unassigned; (+)) [(+)-7-(5-fluoro-2-methylphenyl)-2-((3,4-trans)-1-(4-fluorobenzyl)-4-methylpyrrolidin-3-yl)imidazo[5,1-f][1,2,4]triazin-4(3H)-one]
- IC50 (PDE9A2; IC50 band, 4.0 μM cGMP substrate, 1 hour at R.T.): < 1 µM
- PDE1A selectivity (versus PDE9A2) (PDE1A; ratio of IC50 values PDE1A vs PDE9A2, value greater than 1 indicates greater selectivity for PDE9A2): 1738
- PDE1B selectivity (versus PDE9A2) (PDE1B; ratio of IC50 values PDE1B vs PDE9A2, value greater than 1 indicates greater selectivity for PDE9A2): 393

Structure (SMILES): CC1CN(Cc2ccc(Cl)cc2Cl)CC1c1nn2c(C3CCOCC3)ncc2c(=O)[nH]1 (single isomer, unassigned; (+)) [(+)-2-((3,4-trans)-1-(2,4-dichlorobenzyl)-4-methylpyrrolidin-3-yl)-7-(tetrahydro-2H-pyran-4-yl)imidazo[5,1-f][1,2,4]triazin-4(3H)-one]
- IC50 (PDE9A2; [1]): < 1 µM
- PDE1A selectivity (versus PDE9A2) (PDE1A; [2]): 598
- PDE1B selectivity (versus PDE9A2) (PDE1B; [2]): 994

Structure (SMILES): CCC(CC)c1ncc2c(=O)[nH]c(C3CN(Cc4cn5ccccc5n4)CC3C)nn12 (single isomer, unassigned; (+)) [(+)-2-((3,4-trans)-1-(imidazo[1,2-a]pyridin-2-ylmethyl)-4-methylpyrrolidin-3-yl)-7-(pentan-3-yl)imidazo[5,1-f][1,2,4]triazin-4(3H)-one]
- IC50 (PDE9A2; [3]): < 1 µM
- PDE1A selectivity (versus PDE9A2) (PDE1A; [4]): 51
- PDE1B selectivity (versus PDE9A2) (PDE1B; [5]): 48

Structure (SMILES): Cc1cccc(CN2CC(C)C(c3nn4c(C5CCOCC5)ncc4c(=O)[nH]3)C2)c1 (single isomer, unassigned; (+)) [(+)-2-((3,4-trans)-4-methyl-1-(3-methylbenzyl)pyrrolidin-3-yl)-7-(tetrahydro-2H-pyran-4-yl)imidazo[5,1-f][1,2,4]triazin-4(3H)-one]
- IC50 (PDE9A2; [1]): < 1 µM
- PDE1A selectivity (versus PDE9A2) (PDE1A; [2]): 442
- PDE1B selectivity (versus PDE9A2) (PDE1B; [2]): 402

Structure (SMILES): Cc1ncccc1CN1CC(C)C(c2nn3c(C4CCOCC4)ncc3c(=O)[nH]2)C1 (single isomer, unassigned; (+)) [(+)-2-((3,4-trans)-4-methyl-1-((2-methylpyridin-3-yl)methyl)pyrrolidin-3-yl)-7-(tetrahydro-2H-pyran-4-yl)imidazo[5,1-f][1,2,4]triazin-4(3H)-one]
- IC50 (PDE9A2; [3]): < 1 µM
- PDE1A selectivity (versus PDE9A2) (PDE1A; [6]): 139
- PDE1B selectivity (versus PDE9A2) (PDE1B; [7]): 201

Structure (SMILES): CC1CN(Cc2ccc(F)cc2)CC1c1nn2c(-c3ccccc3F)ncc2c(=O)[nH]1 (single isomer, unassigned; (+)) [(+)-2-((3,4-trans)-1-(4-fluorobenzyl)-4-methylpyrrolidin-3-yl)-7-(2-fluorophenyl)imidazo[5,1-f][1,2,4]triazin-4(3H)-one]
- IC50 (PDE9A2; [3]): < 1 µM
- PDE1A selectivity (versus PDE9A2) (PDE1A; [4]): 62
- PDE1B selectivity (versus PDE9A2) (PDE1B; [5]): 165

Structure (SMILES): CC1CN(Cc2cc(Cl)cc(C(F)(F)F)c2)CC1c1nn2c(C3CCOCC3)ncc2c(=O)[nH]1 (single isomer, unassigned; (+)) [(+)-2-((3,4-trans)-1-(3-chloro-5-(trifluoromethyl)benzyl)-4-methylpyrrolidin-3-yl)-7-(tetrahydro-2H-pyran-4-yl)imidazo[5,1-f][1,2,4]triazin-4(3H)-one]
- IC50 (PDE9A2; [3]): < 1 µM
- PDE1A selectivity (versus PDE9A2) (PDE1A; [6]): 236
- PDE1B selectivity (versus PDE9A2) (PDE1B; [7]): 105

Structure (SMILES): CC1CN(Cc2ccc(Cl)c(Cl)c2)CC1c1nn2c(C3CCOCC3)ncc2c(=O)[nH]1 (single isomer, unassigned; (+)) [(+)-2-((3,4-trans)-1-(3,4-dichlorobenzyl)-4-methylpyrrolidin-3-yl)-7-(tetrahydro-2H-pyran-4-yl)imidazo[1,5-f][1,2,4]triazin-4(3H)-one]
- IC50 (PDE9A2; [1]): < 1 µM
- PDE1A selectivity (versus PDE9A2) (PDE1A; [2]): 1297
- PDE1B selectivity (versus PDE9A2) (PDE1B; [2]): 2627

Structure (SMILES): Cc1ccccc1-c1ncc2c(=O)[nH]c(C3CN(Cc4cnccn4)CC3C)nn12 (single isomer, unassigned; (+)) [(+)-2-((3,4-trans)-4-methyl-1-(pyrazin-2-ylmethyl)pyrrolidin-3-yl)-7-(o-tolyl)imidazo[5,1-f][1,2,4]triazin-4(3H)-one]
- IC50 (PDE9A2; read-out: Band (PDE9A2 IC50)): < 1 µM
- PDE1A selectivity (versus PDE9A2) (PDE1A; [8]): 387
- PDE1B selectivity (versus PDE9A2) (PDE1B; [9]): 469

Structure (SMILES): Cc1ccccc1-c1ncc2c(=O)[nH]c(C3CN(Cc4ccc(Cl)cc4)CC3C)nn12 (single isomer, unassigned; (+)) [(+)-2-((3,4-trans)-1-(4-chlorobenzyl)-4-methylpyrrolidin-3-yl)-7-(o-tolyl)imidazo[5,1-f][1,2,4]triazin-4(3H)-one]
- IC50 (PDE9A2; read-out: Band (PDE9A2 IC50)): < 1 µM
- PDE1A selectivity (versus PDE9A2) (PDE1A; [8]): 55
- PDE1B selectivity (versus PDE9A2) (PDE1B; [9]): 109

Structure (SMILES): Cc1cc(F)c(F)cc1-c1ncc2c(=O)[nH]c(C3CN(Cc4nc5ccccn5n4)CC3C)nn12 (single isomer, unassigned; (+)) [(+)-2-((3,4-trans)-1-([1,2,4]triazolo[1,5-a]pyridin-2-ylmethyl)-4-methylpyrrolidin-3-yl)-7-(4,5-difluoro-2-methylphenyl)imidazo[5,1-f][1,2,4]triazin-4(3H)-one]
- IC50 (PDE9A2; read-out: Band (PDE9A2 IC50)): < 1 µM
- PDE1A selectivity (versus PDE9A2) (PDE1A; [8]): 1000
- PDE1B selectivity (versus PDE9A2) (PDE1B; [9]): 2140

Structure (SMILES): Cc1ccnc(CN2CC(C)C(c3nn4c(C5CCOCC5)ncc4c(=O)[nH]3)C2)n1 (single isomer, unassigned; (+)) [(+)-2-((3,4-trans)-4-methyl-1-((4-methylpyrimidin-2-yl)methyl)pyrrolidin-3-yl)-7-(tetrahydro-2H-pyran-4-yl)imidazo[5,1-f][1,2,4]triazin-4(3H)-one]
- IC50 (PDE9A2; Table 2, 10 concentrations, 4.0 μM cGMP substrate, 1 hour at R.T., read-out: Band (PDE9A2 IC50)): < 1 µM
- PDE1A selectivity (versus PDE9A2) (PDE1A; [10]): 182
- PDE1B selectivity (versus PDE9A2) (PDE1B; [10]): 220

Structure (SMILES): Cc1cc(CN2CC(C)C(c3nn4c(C5CCOCC5)ncc4c(=O)[nH]3)C2)ccc1Cl (single isomer, unassigned; (+)) [(+)-2-((3,4-trans)-1-(4-chloro-3-methylbenzyl)-4-methylpyrrolidin-3-yl)-7-(tetrahydro-2H-pyran-4-yl)imidazo[5,1-f][1,2,4]triazin-4(3H)-one]
- IC50 (PDE9A2; [3]): < 1 µM
- PDE1A selectivity (versus PDE9A2) (PDE1A; [6]): 466
- PDE1B selectivity (versus PDE9A2) (PDE1B; [7]): 818

Structure (SMILES): CC1CN(Cc2cccc(-n3cccn3)c2)CC1c1nn2c(C3CCOCC3)ncc2c(=O)[nH]1 (single isomer, unassigned; (+)) [(+)-2-((3,4-trans)-1-(3-(1H-pyrazol-1-yl)benzyl)-4-methylpyrrolidin-3-yl)-7-(tetrahydro-2H-pyran-4-yl)imidazo[5,1-f][1,2,4]triazin-4(3H)-one]
- IC50 (PDE9A2; [1]): < 1 µM
- PDE1A selectivity (versus PDE9A2) (PDE1A; [2]): 612
- PDE1B selectivity (versus PDE9A2) (PDE1B; [2]): 1490

Structure (SMILES): COc1cc(CN2CC(C)C(c3nn4c(C5CCOCC5)ncc4c(=O)[nH]3)C2)ccn1 (single isomer, unassigned; (+)) [(+)-2-((3,4-trans)-1-((2-methoxypyridin-4-yl)methyl)-4-methylpyrrolidin-3-yl)-7-(tetrahydro-2H-pyran-4-yl)imidazo[5,1-f][1,2,4]triazin-4(3H)-one]
- IC50 (PDE9A2; Table 3, 4.0 μM cGMP substrate, 1 hour at R.T., read-out: Band (PDE9A2 IC50)): < 1 µM
- PDE1A selectivity (versus PDE9A2) (PDE1A; ratio of IC50 values, PDE1A versus PDE9A2, value greater than 1 = greater selectivity for PDE9A2): 317
- PDE1B selectivity (versus PDE9A2) (PDE1B; ratio of IC50 values, PDE1B versus PDE9A2, value greater than 1 = greater selectivity for PDE9A2): 607

Structure (SMILES): CC1CN(Cc2c(F)ccc(F)c2Cl)CC1c1nn2c(C3CCOCC3)ncc2c(=O)[nH]1 (single isomer, unassigned; (+)) [(+)-2-((3,4-trans)-1-(2-chloro-3,6-difluorobenzyl)-4-methylpyrrolidin-3-yl)-7-(tetrahydro-2H-pyran-4-yl)imidazo[5,1-f][1,2,4]triazin-4(3H)-one]
- IC50 (PDE9A2; [3]): < 1 µM
- PDE1A selectivity (versus PDE9A2) (PDE1A; [6]): 118
- PDE1B selectivity (versus PDE9A2) (PDE1B; [7]): 231
